In patent US9777004B2, “Amino-substituted imidazopyridazines” (Bayer Intellectual Property GmbH, priority 2012, dated 2017) one finds IC50 data, which are given here for 18 compounds.

Test [1] addresses T1, human full-length MKNK1 (Homo sapiens (Human), UniProt Q9BUB5, T344D). Briefly: MKNK1 kinase assay (TR-FRET). Format: biochemical. As to conditions: 10 μM ATP, 15 min preincubation. The protocol:
MKNK1-inhibitory activity of compounds of the present invention was quantified employing the MKNK1 TR-FRET assay as described in the following paragraphs.
As substrate for the kinase reaction the biotinylated peptide biotin-Ahx-[…] (C-terminus in amide form) was used which can be purchased e.g. form the company Biosyntan (Berlin-Buch, Germany).
(§1) For the assay 50 nL of a 100fold concentrated solution of the test compound in DMSO was pipetted into a black low volume 384well microtiter plate (Greiner Bio-One, Frickenhausen, Germany), 2 μL of a solution of MKNK1 in aqueous assay buffer [50 mM HEPES pH 7.5, 5 mM magnesium chloride, 1.0 mM dithiothreitol, 0.005% (v/v) Nonidet-P40 (Sigma)] was added and the mixture was incubated for 15 min at 22° C. to allow pre-binding of the test compounds to the enzyme before the start of the kinase reaction. Then the kinase reaction was started by the addition of 3 μL of a solution of adenosine-tri-phosphate (ATP, 16.7 μM=>final conc. in the 5 μL assay volume is 10 μM) and substrate (0.1 μM=>final conc. in the 5 μL assay volume is 0.06 μM) in assay buffer and the resulting mixture was incubated for a reaction time of 45 min at 22° C. The concentration of MKNK1 was adjusted depending of the activity of the enzyme lot and was chosen appropriate to have the assay in the linear range, typical concentrations were in the range of 0.05 μg/mL. The reaction was stopped by the addition of 5 μL of a solution of TR-FRET detection reagents (5 nM streptavidine-XL665 [Cisbio Bioassays, Codolet, France] and 1 nM anti-ribosomal protein S6 (pSer236)-antibody from Invitrogen [#44921G] and 1 nM LANCE EU-W1024 labeled ProteinG [Perkin-Elmer, product no. AD0071]) in an aqueous EDTA-solution (100 mM EDTA, 0.1% (w/v) bovine serum albumin in 50 mM HEPES pH 7.5).
(§2) The resulting mixture was incubated for 1 h at 22° C. to allow the formation of complex between the phosphorylated biotinylated peptide and the detection reagents. Subsequently the amount of phosphorylated substrate was evaluated by measurement of the resonance energy transfer from the Eu-chelate to the streptavidine-XL. Therefore, the fluorescence emissions at 620 nm and 665 nm after excitation at 350 nm were measured in a TR-FRET reader, e.g. a Rubystar (BMG Labtechnologies, Offenburg, Germany) or a Viewlux (Perkin-Elmer). The ratio of the emissions at 665 nm and at 622 nm was taken as the measure for the amount of phosphorylated substrate.

Test [2] has as its target T1, human full-length MKNK1. As to the kind of experiment: MKNK1 kinase high ATP assay (TR-FRET). The following applies: 2 mM ATP, 15 min preincubation. It counts as biochemical. The protocol:
MKNK1 Kinase High ATP Assay
MKNK1-inhibitory activity at high ATP of compounds of the present invention after their preincubation with MKNK1 was quantified employing the TR-FRET-based MKNK1 high ATP assay as described in the following paragraphs.
As substrate for the kinase reaction the biotinylated peptide biotin-Ahx-[…] (C-terminus in amide form) was used, which can be purchased e.g. from the company Biosyntan (Berlin-Buch, Germany).
as §1, with “3.3 mM=>final” for “16.7 μM=>final”, “2 mM)” for “10 μM)”, “30” for “45”, “0.003” for “0.05”
as §2

T1 sequence (Q9BUB5 other isoform, or with tags, fused parts or gaps T344D): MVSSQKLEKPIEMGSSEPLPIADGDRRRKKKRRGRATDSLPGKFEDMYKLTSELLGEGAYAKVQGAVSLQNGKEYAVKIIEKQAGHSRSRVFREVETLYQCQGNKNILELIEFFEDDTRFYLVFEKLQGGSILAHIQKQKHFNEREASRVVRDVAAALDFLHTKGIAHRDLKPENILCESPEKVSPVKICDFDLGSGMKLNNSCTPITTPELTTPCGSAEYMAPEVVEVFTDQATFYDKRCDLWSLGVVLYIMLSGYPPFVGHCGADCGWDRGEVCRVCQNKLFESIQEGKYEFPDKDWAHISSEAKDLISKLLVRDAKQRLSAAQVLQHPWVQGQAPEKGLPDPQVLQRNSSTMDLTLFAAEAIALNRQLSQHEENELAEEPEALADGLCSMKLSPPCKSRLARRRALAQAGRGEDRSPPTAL

In the case of `CNCC(Oc1ccc2ncc(-c3cc4ccccc4o3)n2n1)c1ccccc1` (single isomer, unassigned; (-)) [Example 29, (-)-2-{[3-(1-Benzofuran-2-yl)imidazo[1,2-b]pyridazin-6-yl]oxy}-N-methyl-2-phenylethanamine], the results for the IC50 at human full-length MKNK1 [1] and against human full-length MKNK1 [2] were 98 nM and 124 nM, respectively. In the case of `COc1cccc2oc(-c3cnc4ccc(OC[C@H]5CNCCO5)nn34)cc12` [Example 2, 3-(4-Methoxy-1-benzofuran-2-yl)-6-[(2R)-morpholin-2-ylmethoxy]imidazo[1,2-b]pyridazine], at human full-length MKNK1 [2], the midpoint of inhibition, the IC50, lay at 11 nM.

For the compound `CC(C)(C)CNCCCOc1ccc2ncc(-c3cc4ccccc4o3)n2n1` [Example 4, N-(3-{[3-(1-Benzofuran-2-yl)imidazo[1,2-b]pyridazin-6-yl]oxy}propyl)-2,2-dimethylpropan-1-amine], the IC50 worked out at 4 nM at human full-length MKNK1 [1] and 13 nM against human full-length MKNK1 [2]. Consider `c1ccc2oc(-c3cnc4ccc(OCCNCC5CC5)nn34)cc2c1` [Example 6, 2-{[3-(1-Benzofuran-2-yl)imidazo[1,2-b]pyridazin-6-yl]oxy}-N-(cyclopropylmethyl)ethanamine], for which the results for the IC50 at human full-length MKNK1 [1] and against human full-length MKNK1 [2] were 7 nM and 18 nM, respectively. On the same counts, the results for `CC(C)NCCCOc1ccc2ncc(-c3cc4ccccc4o3)n2n1` [Example 9, 3-{[3-(1-Benzofuran-2-yl)imidazo[1,2-b]pyridazin-6-yl]oxy}-N-(propan-2-yl)propan-1-amine] are 7 nM and 20 nM. For `CC(C)(C)CNCCOc1ccc2ncc(-c3cc4ccccc4o3)n2n1` [Example 12, N-(2-{[3-(1-Benzofuran-2-yl)imidazo[1,2-b]pyridazin-6-yl]oxy}ethyl)-2,2-dimethylpropan-1-amine], the IC50 is 11 nM against human full-length MKNK1 [1] and 25 nM on human full-length MKNK1 [2]. `c1ccc2oc(-c3cnc4ccc(OCC5CNC5)nn34)cc2c1` [Example 14, 6-(Azetidin-3-ylmethoxy)-3-(1-benzofuran-2-yl)imidazo[1,2-b]pyridazine]: the IC50 against human full-length MKNK1 [2] came to 27 nM. That is a double-digit nanomolar value. Regarding `c1ccc2oc(-c3cnc4ccc(OCC[C@@H]5CCCN5)nn34)cc2c1` [Example 15, 3-(1-Benzofuran-2-yl)-6-{2-[(2S)-pyrrolidin-2-yl]ethoxy}imidazo[1,2-b]pyridazine], the IC50 turned out to be 12 nM at human full-length MKNK1 [1] and 30 nM against human full-length MKNK1 [2]. Turning to `c1ccc2oc(-c3cnc4ccc(OCCNC5CC5)nn34)cc2c1` [Example 17, N-(2-{[3-(1-Benzofuran-2-yl)imidazo[1,2-b]pyridazin-6-yl]oxy}ethyl)cyclopropanamine], the values for the IC50 at human full-length MKNK1 [1] and against human full-length MKNK1 [2] were 8 nM and 36 nM, respectively. On the same counts, the results for `CC(C)(C)NCCOc1ccc2ncc(-c3cc4ccccc4o3)n2n1` [Example 18, N-(2-{[3-(1-Benzofuran-2-yl)imidazo[1,2-b]pyridazin-6-yl]oxy}ethyl)-2-methylpropan-2-amine] are 24 nM and 37 nM. Take `Clc1ccc2oc(-c3cnc4ccc(OC[C@H]5CNCCO5)nn34)cc2c1` [Example 20, 3-(5-Chloro-1-benzofuran-2-yl)-6-[(2R)-morpholin-2-ylmethoxy]imidazo[1,2-b]pyridazine]: on human full-length MKNK1 [2], the IC50 was 41 nM. `CNC(C)COc1ccc2ncc(-c3cc4ccccc4o3)n2n1` (stereo not shown) [Example 24, 1-{[3-(1-Benzofuran-2-yl)imidazo[1,2-b]pyridazin-6-yl]oxy}-N-methylpropan-2-amine] yielded an IC50 at human full-length MKNK1 [2] of 55 nM. This IC50 and that of the compound before are within 1.5-fold of each other. Consider `Clc1ccc2oc(-c3cnc4ccc(OCC[C@@H]5CCCN5)nn34)cc2c1` [Example 25, 3-(5-Chloro-1-benzofuran-2-yl)-6-{2-[(2S)-pyrrolidin-2-yl]ethoxy}imidazo[1,2-b]pyridazine], for which the 50% inhibitory concentration (IC50) at human full-length MKNK1 [1] is 39 nM; at human full-length MKNK1 [2], 91 nM. At human full-length MKNK1 [2], `CNCC(C)Oc1ccc2ncc(-c3cc4ccccc4o3)n2n1` (stereo not shown) [Example 26, 2-{[3-(1-Benzofuran-2-yl)imidazo[1,2-b]pyridazin-6-yl]oxy}-N-methylpropan-1-amine] displayed an IC50 of 93 nM. As for `CC(C)NCC(Oc1ccc2ncc(-c3cc4ccccc4o3)n2n1)c1ccccc1` (stereo not shown) [Example 27, Formic acid-N-(2-{[3-(1-benzofuran-2-yl)imidazo[1,2-b]pyridazin-6-yl]oxy}-2-phenylethyl)propan-2-amine (1:1)], the half-inhibitory concentration (IC50) on human full-length MKNK1 [1] is 36 nM; against human full-length MKNK1 [2] it was 75 nM. Consider `CC(C)(C)CNCC(Oc1ccc2ncc(-c3cc4ccccc4o3)n2n1)c1ccccc1` (stereo not shown) [Example 30, N-(2-{[3-(1-Benzofuran-2-yl)imidazo[1,2-b]pyridazin-6-yl]oxy}-2-phenylethyl)-2,2-dimethylpropan-1-amine], for which the IC50 is 227 nM against human full-length MKNK1 [1] and 239 nM at human full-length MKNK1 [2].

`c1ccc2oc(-c3cnc4ccc(O[C@@H]5CCNC5)nn34)cc2c1` [Example 31, 3-(1-Benzofuran-2-yl)-6-[(3R)-pyrrolidin-3-yloxy]imidazo[1,2-b]pyridazine]: the IC50 against human full-length MKNK1 [1] turned out to be 22 nM; against human full-length MKNK1 [2] it was 49 nM. In the case of `Fc1cccc2oc(-c3cnc4ccc(OC[C@H]5CNCCO5)nn34)cc12` [Example 33, 3-(4-Fluoro-1-benzofuran-2-yl)-6-[(2R)-morpholin-2-ylmethoxy]imidazo[1,2-b]-pyridazine], the IC50 on human full-length MKNK1 [1] is 10 nM; on human full-length MKNK1 [2], 15 nM.
